Experimental findings from patent US10239887B2, “Positive allosteric modulators of the muscarinic acetylcholine receptor M4” (Vanderbilt University, priority 2016, dated 2019) are described below.

This assay has as its target T1, human mAChR M4 (Homo sapiens, UniProt P08173).
T1 sequence (P08173 1-479): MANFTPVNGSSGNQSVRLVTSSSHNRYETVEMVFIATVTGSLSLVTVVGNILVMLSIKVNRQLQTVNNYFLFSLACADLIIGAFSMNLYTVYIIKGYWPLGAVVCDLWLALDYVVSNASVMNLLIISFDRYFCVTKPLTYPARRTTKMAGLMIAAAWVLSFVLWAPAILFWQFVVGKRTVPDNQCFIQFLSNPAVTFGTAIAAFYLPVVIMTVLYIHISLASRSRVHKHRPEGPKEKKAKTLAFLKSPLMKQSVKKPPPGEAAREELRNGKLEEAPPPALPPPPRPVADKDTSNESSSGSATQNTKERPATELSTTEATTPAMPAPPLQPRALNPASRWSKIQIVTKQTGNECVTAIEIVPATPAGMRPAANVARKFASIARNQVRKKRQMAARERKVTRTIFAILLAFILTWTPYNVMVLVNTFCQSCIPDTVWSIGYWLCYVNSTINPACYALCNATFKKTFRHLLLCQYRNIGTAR
Put plainly: mAChR M4 cell-based functional assay (calcium flux), human M4. Conditions: for EC50: calcium flux. On the technique in general: Calcium assays in cells follow changes in intracellular calcium, usually with a dye or a luminescent sensor.

The mark [1] stands for this setting: Human M4 EC50 (nM), Table 10, PAM activity with EC20 acetylcholine.
Where [2] appears, read: Table 10, % ACh maximum at 30 μM.
Setting [3] is: Human M4, % ACh maximum at 30 μM.
Setting [4] is: Human M4 EC50, CHO-K1 hM4-Gqi5 cells, increase in EC20 acetylcholine response.
Setting [5] is: Human M4 EC50 (nM), Table 11, PAM activity with EC20 acetylcholine.
[6] abbreviates: Table 11, % ACh maximum at 30 μM.

Counter-ions that a name gives are not always drawn.

One may read the EC50 as the concentration needed to bring the measured effect to its halfway point. Usually Emax stands for the greatest response seen or fitted, relative to the assay's reference. On to `Cc1c(Cl)cnc2sc3c(NC4CN(c5ncc(F)cn5)C4)ncnc3c12` [Compound 225, 8-chloro-N-[1-(5-fluoropyrimidin-2-yl)azetidin-3-yl]-9-methyl-pyrido [3′,2′:4,5]thieno[3,2-d] pyrimidin-4-amine], for which the EC50 under setting [1] was determined as 841 nM. In addition, under setting [2], the maximal effect (Emax) amounted to 63%.

`Cc1nc2oc3c(NCc4ccc(C(C)(C)O)cc4)ncnc3c2c(C)c1Cl` [Compound 251, 2-[4-[[(8-chloro-7,9-dimethyl-pyrido [3′,2′:4,5]furo[3,2-d]pyrimidin-4-yl)amino]methyl]phenyl]propan-2-ol]: under setting [1], the EC50 amounted to 1160 nM. Further, the maximal effect (Emax) under setting [2] was 61.8%.

As for `Cc1nc2oc3c(NC4CC4c4ccc(F)c(F)c4)ncnc3c2c(C)c1Cl` (centres unmarked) [Compound 51, 8-chloro-N-[2-(3,4-difluorophenyl)cyclopropyl]-7,9-dimethyl-pyrido [3′,2′:4,5]furo[3,2-d]pyrimidin-4-amine hydrochloride], the maximal effect (Emax) under setting [3] is 70%. Further, under setting [4], the EC50 came to 7840 nM.

For the molecule `Cc1nnc2sc3c(NCc4ccc(C(=O)N5CCCC5)cc4)ncnc3c2c1C` [Compound 122, [4-[[(3,4-dimethylpyrimido [4′,5′:4,5]thieno[2,3-c]pyridazin-8-yl)amino]methyl]phenyl]-pyrrolidin-1-yl-methanone], under setting [1], the EC50 is 482 nM. Further, the maximal effect (Emax) under setting [2] stood at 83.7%.

Turning to `Cc1nnc2sc3c(NC4CC4c4ccc(F)c(F)c4)ncnc3c2c1C` (centres unmarked) [Compound 119, N-[2-(3,4-difluorophenyl)cyclopropyl]-3,4-dimethyl-pyrimido [4′,5′:4,5]thieno[2,3-c] pyridazin-8-amine], the concentration giving a half-maximal response (EC50) under setting [1] worked out at 941 nM. Moreover, the Emax under setting [2] was 98.4%.

On to `Cc1nnc2sc3c(N4CC[C@H](Oc5cnccn5)C4)ncnc3c2c1C` [Compound 361, 3,4-dimethyl-8-[(3S)-3-pyrazin-2-yloxypyrrolidin-1-yl]pyrimido[4′,5′:4,5] thieno[2,3-c]pyridazine dihydrochloride], for which the EC50 under setting [5] was found to be 1470 nM. Besides, the Emax under setting [6] was 53.9%.

Consider `Cc1c(Cl)cnc2sc3c(NC4CN(c5cc(Cl)ncc5Cl)C4)ncnc3c12` [Compound 231, 8-chloro-N-[1-(2,5-dichloro-4-pyridyl)azetidin-3-yl]-9-methyl-pyrido [3′,2′:4,5]thieno[3,2-d] pyrimidin-4-amine], for which, under setting [1], the EC50 worked out at 3710 nM. Also, the maximum response (Emax) under setting [2] worked out at 44.3%.

Take `Cc1nnc2oc3c(NCc4ccc(C(C)(C)O)nc4)ncnc3c2c1C` [Compound 308, 2-[5-[[(3,4-dimethylpyrimido [4′,5′:4,5]furo[2,3-c]pyridazin-8-yl)amino]methyl]-2-pyridyl]propan-2-ol]: the 50% effective concentration (EC50) under setting [1] was 9160 nM. For the same molecule, the maximal effect (Emax) under setting [2] is 59.5%.

For `Cc1nnc2sc3c(NC4CC(O)(c5ccc(F)cc5)C4)ncnc3c2c1C` (centres unmarked) [Compound 339, 3-[(3,4-dimethylpyrimido [4′,5′:4,5]thieno[2,3-c]pyridazin-8-yl)amino]-1-(4-fluorophenyl) cyclobutanol], under setting [5], the EC50 was determined as 4900 nM. For the same molecule, under setting [6], the maximal effect (Emax) was found to be 50.9%.

As for `Cc1nnc2sc3c(NC4CN(c5ncc(Cl)cc5F)C4)ncnc3c2c1C` [Compound 315, N-[1-(5-chloro-3-fluoro-2-pyridyl)azetidin-3-yl]-3,4-dimethyl-pyrimido[4′,5′:4,5]thieno [2,3-c]pyridazin-8-amine], the EC50 under setting [5] was determined as 659 nM. Under setting [6], the Emax amounted to 74.9%.

As to `Cc1nc2sc3c(NCc4ccc(CN5CCOCC5)cc4)ncnc3c2c(C)c1Cl` [Compound 269, 8-chloro-7,9-dimethyl-N-[[4-(morpholinomethyl)phenyl]methyl]pyrido [3′,2′:4,5]thieno[3,2-d] pyrimidin-4-amine dihydrochloride], under setting [1], the EC50 was found to be 3570 nM. Also, the maximum response (Emax) under setting [2] was 71.2%.

As to `Cc1nnc2sc3c(NCc4ccc(C(=O)N5CC[C@@H](F)C5)cc4)ncnc3c2c1C` [Compound 129, [4-[[(3,4-dimethylpyrimido [4′,5′:4,5]thieno[2,3-c]pyridazin-8-yl)amino]methyl]phenyl]-[(3R)-3-fluoropyrrolidin-1-yl]methanone], the EC50 under setting [1] turned out to be 446 nM. In addition, the Emax under setting [2] is 90.6%.

For the molecule `Cc1nnc2oc3c(N4CC5(COC5)C4)ncnc3c2c1C` [Compound 307, 3,4-dimethyl-8-(2-oxa-6-azaspiro[3.3]heptan-6-yl)pyrimido[4′,5′:4,5] furo[2,3-c]pyridazine], the 50% effective concentration (EC50) under setting [1] worked out at 4840 nM. The Emax under setting [2] worked out at 46.1%.

Regarding `Cc1nnc2sc3c(N4CC(Oc5cccc(F)c5)C4)ncnc3c2c1C` [Compound 32, 8-(3-(3-fluorophenoxy)azetidin-1-yl)-3,4-dimethylpyrimido [4′,5′:4,5]thieno[2,3-c] pyridazine], the Emax under setting [3] is 62%. Further, under setting [4], the concentration for a half-maximal effect (EC50) was determined as 1760 nM.

For `Cc1cnc2sc3c(N4CCCC4)ncnc3c2c1` [Compound 15, 8-methyl-4-(pyrrolidin-1-yl) pyrido[3′,2′:4,5]thieno [3,2-d]pyrimidine], the Emax under setting [3] was 40%.

With `Cc1c(Cl)nnc2sc3c(NCc4ccc(C(C)(C)O)cc4)ncnc3c12` [Compound 213], the Emax under setting [2] is 97.3%.

In the case of `Cc1cc(C)c2c(n1)oc1c(NC3CC3)ncnc12` [Compound 295, N-cyclopropyl-7,9-dimethyl-pyrido[3′,2′:4,5]furo[3,2-d]pyrimidin-4-amine hydrochloride], under setting [2], the “Emax (%)” value is given as 63.93%.

Regarding `Cc1nnc2sc3c(NCc4ccc(S(F)(F)(F)(F)F)cc4)ncnc3c2c1C` [Compound 92, 3,4-dimethyl-N-[[4-(pentafluoro-λ6-sulfanyl)phenyl]methyl]pyrimido [4′,5′:4,5]thieno[2,3-c] pyridazin-8-amine], the EC50 under setting [1] was determined as 5270 nM. Moreover, the Emax under setting [2] was determined as 67.3%.

For the molecule `Cc1nnc2sc3c(NC4CC5(C4)CN(c4ncc(Cl)cc4F)C5)ncnc3c2c1C` [Compound 164, N-[2-(5-chloro-3-fluoro-2-pyridyl)-2-azaspiro [3.3]heptan-6-yl]-3,4-dimethyl-pyrimido [4′,5′:4,5]thieno[2,3-c] pyridazin-8-amine], the EC50 under setting [1] stood at 3500 nM. Moreover, under setting [2], the Emax came to 22.7%.

For `Cc1nc2sc3c(NC4CCC4)ncnc3c2c(C)c1Cl` [Compound 266, 8-chloro-N-cyclobutyl-7,9-dimethyl-pyrido [3′,2′:4,5]thieno[3,2-d] pyrimidin-4-amine hydrochloride], the EC50 under setting [1] was determined as 1660 nM. For the same molecule, under setting [2], the Emax was 55.5%.

Turning to `Cc1nnc2sc3c(N4CCC(Oc5ccncc5)(C(F)(F)F)C4)ncnc3c2c1C` (centres unmarked) [Compound 366, 3,4-dimethyl-8-[3-(4-pyridyloxy)-3-(trifluoromethyl)pyrrolidin-1-yl]pyrimido[4′,5′:4,5]thieno[2,3-c]pyridazine dihydrochloride], the 50% effective concentration (EC50) under setting [5] turned out to be 1360 nM. Moreover, under setting [6], the maximal response (Emax) turned out to be 77.7%.

Regarding `Cc1nnc2sc3c(NC45CC(F)(C4)C5)ncnc3c2c1C` [Compound 139, N-(3-fluoro-1-bicyclo [1.1.1]pentanyl)-3,4-dimethyl-pyrimido [4′,5′:4,5]thieno[2,3-c]pyridazin-8-amine], under setting [1], the EC50 came out at 422 nM. Moreover, the maximum response (Emax) under setting [2] was determined as 67.6%.

Consider `Cc1nnc2sc3c(N4CC[C@@H](Oc5ccnc(C(F)(F)F)c5)C4)ncnc3c2c1C` [Compound 337, 3,4-dimethyl-8-[(3R)-3-[[2-(trifluoromethyl)-4-pyridyl]oxy]pyrrolidin-1-yl]pyrimido[4′,5′:4,5] thieno[2,3-c]pyridazine], for which, under setting [5], the EC50 stood at 116 nM. Also, under setting [6], the Emax came out at 80.2%.

Take `COc1ccc(CNc2ncnc3c2sc2nnc(C)c(C)c23)cc1` [Compound 135, N-[(4-methoxyphenyl)methyl]-3,4-dimethyl-pyrimido[4′,5′:4,5]thieno [2,3-c]pyridazin-8-amine]: under setting [1], the EC50 came out at 139 nM. Moreover, under setting [2], the maximal response (Emax) stood at 87.8%.

In the case of `COC(C)(C)c1ccc(CNc2ncnc3c2sc2nnc(C)c(C)c23)cc1` [Compound 367, N-[[4-(1-methoxy-1-methyl-ethyl)phenyl]methyl]-3,4-dimethyl-pyrimido[4′,5′:4,5] thieno[2,3-c]pyridazin-8-amine], the Emax under setting [6] stood at 100%.

For the molecule `Cc1nnc2sc3c(NCc4ccc(C(=O)N5CC6(COC6)C5)cc4)ncnc3c2c1C` [Compound 124, [4-[[(3,4-dimethylpyrimido [4′,5′:4,5]thieno[2,3-c]pyridazin-8-yl)amino]methyl]phenyl]-(2-oxa-6-azaspiro[3.3]heptan-6-yl)methanone], under setting [1], the EC50 was determined as 288 nM. The maximum response (Emax) under setting [2] worked out at 84.8%.

As for `Cc1nnc2sc3c(NC(C)c4ccc(C5(O)CCC5)cc4)ncnc3c2c1C` (centres unmarked) [Compound 101, 1-[4-[1-[(3,4-dimethylpyrimido [4′,5′:4,5]thieno[2,3-c]pyridazin-8-yl)amino]ethyl]phenyl]cyclobutanol], the EC50 under setting [1] was 839 nM. For the same molecule, the maximal effect (Emax) under setting [2] came to 59.2%.

For `Cc1nnc2sc3c(N4CC[C@@H](N)C4)ncnc3c2c1C` [Compound 99, (3R)-1-(3,4-dimethylpyrimido [4′,5′:4,5]thieno[2,3-c]pyridazin-8-yl)pyrrolidin-3-amine dihydrochloride], the 50% effective concentration (EC50) under setting [1] came out at 1040 nM. In addition, under setting [2], the Emax came out at 54%.

As for `Cc1cc(C)c2c(n1)sc1c(N3CC4(COC4)C3)ncnc12` [Compound 195, 6-(7,9-dimethylpyrido [3′,2′:4,5]thieno[3,2-d]pyrimidin-4-yl)-2-oxa-6-azaspiro[3.3]heptane], the Emax under setting [2] is 76.3%.
